# Results published in patent publication US20250248393A1, “METHOD OF RELEASING A SEMIOCHEMICAL IN THE ENVIRONEMENT BY PASSIVE DIFFUSION, SYSTEM AND MEANS, ESPECIALLY STICKS, TO THIS END, AND USES THEREOF” (SIGNS, priority 2024, published 2025).
# What was measured:
# Format in all cases: physicochemical
# [1] = Indirect assay of diffuser blocks (GC/FID, pheromone remaining in the block); settings: despecified pheromone
# Method: Analyses were carried out using the gas chromatography (GC) technique with a flame ionization detector (FID), commonly known as GC/FID. The instrument used was the Shimadzu GC2025.® • Injection: Quantity injected: 1 μL, split 50:1, temperature: 230° C. • Separation: DB-WAX column (Agilent), length: 20 m, diameter: 180 μm, film thickness: […] • Carrier gas: Helium (He) • Analysis time: 11.50 min (not including time to return to equilibrium between each analysis) injection). • Detection: FID, temperature: 250° C., flow rates: H2: 40 mL/min, Air: 400 mL/min, Nitrogen (make-up): 30 mL/min. To obtain a representative sample, “cores” were drilled at various positions in the block and then collected. 2.5 g of gel were weighed into a 50 mL volumetric flask and the volume made up to the beginning of the neck of the flask with acetone. The flask was then placed in an ultrasonic bath for one hour until the block was dissolved (a white precipitate was obtained), then acetone was added to the mark. An aliquot of this solution was placed in a syringe fitted with a syringe filter and filtered to obtain a translucent solution. The resulting solution was transferred to a 1.5 mL GC vial for analysis. The assays were carried out using a calibration range.
# [2] = Direct diffusion of diffuser blocks (SPME GC/MS); settings: despecified pheromone 2%, 4 weeks
# Method: Analyses were carried out using gas chromatography (GC) coupled to a mass spectrometer (MS) detector, a technique commonly referred to as GCMS. The molecules of interest were extracted using the Solid Phase Micro-Extraction (SPME) technique. The instrument used was the following: QP2010SE® from Shimadzu (See FIG. 4).
# AOC 6000® automatic feeder • Extraction/SPME fiber: polyacrylate/Fused silica (85 μm), 23 Ga. • Adsorption time: 2 hours (exposure time of fiber above block) (See FIG. 4) • Desorption time: 30 minutes (fiber exposure time in injector) • Fiber-block distance: 2 cm • Injection: split/splitless injector • Temperature: 250° C., split 50 mode. • Separation: ZB-FFAP® column (Phénomenex), length: 30 m, diameter: 250 μm, film thickness: […]
# • Carrier gas: Helium (He) • Analysis time: 18 min (not including time to return to equilibrium between each analysis injection • Detection: mass spectrometer with electron impact source/analyzer: quadrupole. • Source temperature: 200° C. • Interface temperature: 250° C. • Scan m/z 50 to m/z 500 • SIM with ions 55, 66 and 74.
# Analyses were carried out in triplicate to verify reproducibility of results.
# With the SPME method, results are evaluated by measuring the chromatographic peak area. The data have been plotted on diffusion curve (see FIGS. 5 and 6).
# [3] = Indirect assay of rod diffuser solution (GC/FID); settings: stick diffuser solution, despecified pheromone
# Method: Solution integrity was checked at each analysis time. Before each indirect assay, the vial was weighed to visualize mass loss over time. Each vial contained six sticks. • Specifications: the solution must lose mass over time. • Result: Compliant—See FIG. 9 This is the same analytical method as for the diffuser block study, only the sample preparation differs. 1.25 g of solution were weighed into a 25 mL volumetric flask and the volume made up to the mark with acetone. The resulting solution is transferred to a 1.5 mL GC vial for analysis. This is exactly the same calibration range as for the diffuser block study.
# [4] = Pheromone migrated to the stick tips (GC/FID); settings: on stick tips, despecified pheromone
# Method: In the course of this study, we also measured the amount of pheromone migrating on the sticks, to check that the pheromone had migrated to the top of the sticks, helping it to diffuse into the air. To do this, the test is the same as for the diffuser blocks: 2.5 g of stick tips are cut off and placed in a 50 mL flask, which is then placed in an ultrasonic bath for one hour. The resulting solution is filtered (to avoid injecting particles into the instrument) and placed in a chromatographic vial for analysis.
# [5] = Direct diffusion of rod diffuser (SPME GC/MS); settings: despecified pheromone 2%
# Method: This is exactly the same analytical method used for the diffuser block study. The study setup is shown below, also with a two-hour adsorption time-See FIG. 12 showing the set-up. Because of the height of the passive diffusion device, the fiber mounting bracket will not be the same for the block and for the rod device. The distance between the fiber and the device is 10 cm. With the SPME method, results are evaluated by measuring the chromatographic peak area. The data have been plotted to produce a diffusion curve.
# [6] = DAP PCDS direct diffusion (SPME-GC/MS); settings: DAP/PCDS diffuser, 40 mL, 6 capillaries
# Method: Three diffusers, each containing 40 mL of solution and 6 capillaries, were prepared and diffused. The first points were measured at T=1d, T=2, and T=3d, then every Monday, Wednesday and Friday of each study week until the diffusers no longer contained any solution. To measure the pheromone released into the air at each study time, the diffuser is first weighed (with the sticks) to measure mass loss, then placed in an enclosed area (in this case, an upside-down aquarium) containing a SPME fiber, as shown in FIG. 24.
# The fiber is left to diffuse above the diffuser for 2 hours (a time determined in a previous method development as the optimum time for molecules to adsorb to the phase), then analyzed using the gas chromatography/mass spectrometry (GC/MS) technique.
# Three diffusers were studied for greater accuracy. The chromatograms obtained are reprocessed using GC/MS Solution software.
# For each chromatographic peak, the area is recorded using GC/MS Solution software, then entered into an Excel spreadsheet. Diffusion curves giving the area of the chromatographic peak corresponding to each active ingredient as a function of time are then plotted.
# Analyses were carried out by gas chromatography/mass spectrometry (GC/MS). The instrument was a Shimadzu GCMS QP2010SE® equipped with an AOC 6000® autosampler. Separation was carried out on a ZB-FFAP® column (30 m×0.25 mm×0.25 μm, stationary phase: nitroterephthalic acid-modified polyethylene glycol) supplied by Phenomenex. The furnace temperature was initially set at 80° C. for 1 minute, then increased at 10° C./min to 240° C. and maintained at this temperature for 2 minutes. The carrier gas was helium at a flow rate of 1 mL/min. Analysis time is 19 minutes.
# The injector is a split/splitless injector used in split mode (temperature: 250° C., split: 50:1). The SPME fiber was injected directly into the injector and left to desorb for 15 minutes.
# The separated molecules were detected using a mass spectrometer equipped with an electron impact source (temperature: 200° C.). The analyzer is a simple quadrupole. The interface temperature is 250° C. Data were acquired in FASST mode (Fast automated SCAN/SIM type), i.e. part of the analysis was performed by scanning all ions (SCAN) and part by selecting specific ions (SIM). Target molecules were thus analyzed using ion selection.
# [7] = Ratios of molecules diffused through the sticks over time
# Method: Furthermore, as small molecules diffuse more, it happens that they lose intensity over the course of the study, so the ratios are different 24 hours after immersing the sticks in the liquid and 21 days later. Here are the ratios for each pheromone studied at the start of the study and at the end.
# [8] = Mass loss of PCDS diffuser with isopropyl myristate as solvent; settings: 2% F3 in isopropyl myristate, 170 grams, over 14 days
# Method: The first step in solvent validation consists in preparing a device comprising a glass bottle containing a 2% solution of a known pheromone (feline facial pheromone F3) in isopropyl myristate (also termed Myristic acid isopropyl ester, IUPAC name Propan-2-yl tetradecanoate). The initial weight of solution placed in the bottle is 170 grams. Monitoring is carried out over 14 days, with weighing at DO, D7 and D14.
compound,measurement,setting,value
"CCCCCCCCCCCCCC(=O)OC [methyl myristate, methyl tetradecanoate]",% of the active ingredient in the pheromone,[1]; day 0,12%
same,% of the active ingredient in the pheromone,[1]; day 7,11.9%
same,% of the active ingredient in the pheromone,[1]; day 14,11.9%
same,% of the active ingredient in the pheromone,[1]; day 21,11.7%
same,% of the active ingredient in the pheromone,[1]; day 28,11.7%
same,direct diffusion from the diffuser block,[2],diffuse better
same,% of the active ingredient in the pheromone,[3]; day 0,11.9%
same,% of the active ingredient in the pheromone,[3]; day 7,11.9%
same,% of the active ingredient in the pheromone,[3]; day 14,11.9%
same,% of the active ingredient in the pheromone,[3]; day 21,11.4%
same,% of the active ingredient in the pheromone,[4]; day 7,9.2%
same,% of the active ingredient in the pheromone,[4]; day 14,8.2%
same,% of the active ingredient in the pheromone,[4]; day 21,6.4%
same,"direct diffusion, rod system compared with diffuser block",[5],better in the blocks than in the rod system
same,direct diffusion over time,[6],stable over time
same,ratio of molecules diffused through the sticks,"[7]; DAP, 24 h after immersion of sticks",27 % (w/w)
same,ratio of molecules diffused through the sticks,"[7]; DAP, 21 days after immersion of sticks (empty tank)",33.5 % (w/w)
same,ratio of molecules diffused through the sticks,"[7]; Despecified pheromone (Core), 5 days after immersion of the sticks",76 % (w/w)
same,ratio of molecules diffused through the sticks,"[7]; Despecified pheromone (Core), 21 days after immersion of sticks (empty tank)",70 % (w/w)
same,ratio of molecules diffused through the sticks,"[7]; F3P, 24 h after immersion of the sticks",4 % (w/w)
same,ratio of molecules diffused through the sticks,"[7]; F3P, 21 days after immersion of sticks (empty tank)",8.7 % (w/w)
"CCCCCCCCCCCCCC(=O)OC(C)C [isopropyl myristate, Propan-2-yl tetradecanoate]",mass loss of the PCDS diffuser,[8],virtually non-existent
